Measured values as given in US20030109571A1, “Thromboxane ligands without blood clotting side effects” (ALLERGAN SALES, INC., priority 1993, published 2003).
Entries after “also recorded” stand apart in the source; their conditions may differ. Where two headings read alike, the source gives them in different places. Marks after values point to notes of the source that are not given here.

Experiments:
FP prostanoid receptor = assay: FP-activity: contraction of the isolated feline iris sphincter; conditions: concentration producing 50% of maximal response; read-out: EC50 at FP (Cat Iris)
Protocol: (§1) Activity at different prostanoid receptors was measured in vitro in isolated smooth muscle preparations. FP-activity was measured as contraction of the isolated feline iris sphincter. EP1-activity was measured as contraction of the longitudinal smooth muscle of the isolated guinea pig ileum. EP3-activity was measured as inhibition of the twitch response induced by electrical field stimulation in the isolated guinea pig was deferens and as contraction of the longitudinal smooth muscle of the isolated chick ileum. TP-vasoconstrictor activity was measured as contraction of rings of the isolated rat thoracic aorta. Effects on platelets from healthy human donors were measured by incubating platelet-rich plasma with the compounds described herein. Inhibition of aggregation was determined by the ability of the compounds described herein to inhibit platelet aggregation in platelet-rich plasma induced by 20 μM ADP.

[1] = molecular target: T1, TP-receptor (vascular, TPVASC) (Rattus norvegicus, UniProt P34978); assay: TP-vasoconstrictor activity: contraction of rings of isolated rat thoracic aorta, without or with SQ29,548; conditions: for Activity in contracting vascular smooth muscle: in words
T1 construct: measured in vitro in isolated smooth muscle preparations; from tissue; host or cells: rings of isolated rat thoracic aorta
T1 sequence (P34978 1-341): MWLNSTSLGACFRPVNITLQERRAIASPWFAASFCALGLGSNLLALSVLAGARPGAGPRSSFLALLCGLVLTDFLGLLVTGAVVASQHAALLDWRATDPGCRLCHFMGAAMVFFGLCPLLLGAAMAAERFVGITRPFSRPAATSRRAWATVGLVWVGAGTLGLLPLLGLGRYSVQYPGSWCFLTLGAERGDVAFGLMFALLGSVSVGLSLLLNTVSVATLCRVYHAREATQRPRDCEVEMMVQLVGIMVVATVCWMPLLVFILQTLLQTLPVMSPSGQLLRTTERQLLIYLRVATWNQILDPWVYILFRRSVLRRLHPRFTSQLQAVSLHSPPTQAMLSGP
Protocol: as §1
In addition, inhibition by the thromboxane A2-receptor antagonist SQ29,548 ([1S-[1α, 2α (5Z), 3α, 4α]]-7-[3-[[2-[phenylamino)carbonyl]-hydrazino]methyl]-7-oxabicyclo[2.2.1] hept-2-yl]-5-heptenoic acid) of vasoconstrictor activity was investigated.

Platelets (Human) = assay: Platelet aggregation in platelet-rich plasma from healthy human donors; type: cell-based; conditions: for EC50: Table 1, read-out: EC50 Platelets (Human) Aggregation; for Ability to cause platelet aggregation: in words
Protocol: as §1

rat aorta = conditions: cited from earlier work
TX synthetase = molecular target: T2, TX synthetase (Homo sapiens, UniProt P24557); conditions: in words; cited from earlier work
T2 sequence (P24557 1-533): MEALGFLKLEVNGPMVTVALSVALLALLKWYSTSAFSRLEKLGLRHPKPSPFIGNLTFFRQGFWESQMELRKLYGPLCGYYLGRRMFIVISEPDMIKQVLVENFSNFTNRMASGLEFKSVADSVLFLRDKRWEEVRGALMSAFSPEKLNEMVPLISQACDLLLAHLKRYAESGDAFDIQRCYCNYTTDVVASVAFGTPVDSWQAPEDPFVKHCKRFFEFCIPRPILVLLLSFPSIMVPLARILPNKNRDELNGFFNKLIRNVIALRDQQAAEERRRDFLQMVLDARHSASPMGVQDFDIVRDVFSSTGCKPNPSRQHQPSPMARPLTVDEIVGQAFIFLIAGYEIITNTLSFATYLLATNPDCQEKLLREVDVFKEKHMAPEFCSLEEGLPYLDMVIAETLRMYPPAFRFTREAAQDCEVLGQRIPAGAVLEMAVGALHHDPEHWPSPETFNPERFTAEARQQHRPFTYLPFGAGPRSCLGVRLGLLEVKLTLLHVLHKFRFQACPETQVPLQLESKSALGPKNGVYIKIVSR

rabbit PRP = conditions: in words; cited from earlier work
TXA2 receptor = molecular target: T3, TXA2 receptor (Homo sapiens, UniProt P21731); conditions: in words; cited from earlier work
T3 sequence (P21731 1-343): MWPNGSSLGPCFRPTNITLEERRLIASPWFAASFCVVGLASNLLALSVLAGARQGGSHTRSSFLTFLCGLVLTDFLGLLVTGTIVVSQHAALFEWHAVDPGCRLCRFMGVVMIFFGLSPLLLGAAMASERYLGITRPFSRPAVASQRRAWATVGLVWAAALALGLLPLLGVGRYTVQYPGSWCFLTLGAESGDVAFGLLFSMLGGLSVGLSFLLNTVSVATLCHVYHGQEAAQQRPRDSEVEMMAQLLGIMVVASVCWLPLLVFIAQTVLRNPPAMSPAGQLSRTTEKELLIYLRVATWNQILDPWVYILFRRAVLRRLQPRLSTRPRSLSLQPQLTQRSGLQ

HPRP = conditions: in words; cited from earlier work
EP3 prostanoid receptor [2] = assay: EP3-activity: inhibition of electrically induced twitch response in isolated guinea pig vas deferens; conditions: read-out: EC50 at EP3(c) (Guinea Pig vas deferens)
Protocol: as §1

EP3 prostanoid receptor [3] = assay: EP3-activity: contraction of longitudinal smooth muscle of isolated chick ileum; conditions: read-out: EC50 at EP3(d) (Chick Ileum)
Protocol: as §1

Platelets [4] = assay: Effect of Example 4 pretreatment on agonist-induced platelet aggregation; type: cell-based, human
Protocol: as §1, with “Inhibition of aggregation was determined by the ability of the compounds described herein to inhibit platelet aggregation in platelet-rich plasma induced by 20 μM ADP.” left out

[5] = Dog intraocular pressure, topical dosing, applanation pneumatonometry; type: in vivo; conditions: dog, dose 0.1%
Protocol: The compounds were prepared at the said concentrations in a vehicle comprising 0.1% polysorbate 80 and 10 mM TRIS base. Dogs and monkeys were treated by administering 25 ul to the ocular surface, the contralateral eye received vehicle as a control. Intraocular pressure was measured by applanation pneumatonometry. Experiments were performed with dogs and monkeys. Dog intraocular pressure was measured immediately before drug administration and at 2, 4 and 6 hour thereafter. Additional studies in monkeys were performed over a 5 day period and drug was administered at times 0, 6, 24, 30, 48, 54, 72, 78, and 96 hours. Monkey intraocular pressure was recorded just before drug administration on each day and at the 2 and 4 hour time intervals between dosing.

[6] = tested on: isolated perfused coronary arteries; conditions: cat, cited from earlier work
vasculature = conditions: in words; cited from earlier work
platelets [7] = conditions: in words; cited from earlier work
[8] = in vivo, iv; cited from earlier work
[9] = Table 1, read-out: EC50 at TPVASC (Rat Aorta)

CCCCCC(O)/C=C/C1C2CC(OC(=O)O2)C1C/C=C\CCCC(N)=O (stereo not drawn) [Example 15, 7-[6-carboamino-2-cis-hexenyl]-6-[3α-hydroxy-1-trans-octenyl]-3-oxo-2,4-dioxobicyclo [3.2.1] octane]
EC50 (FP prostanoid receptor): 387 nM | EC50 [1, 9]: 58 nM | Activity in contracting vascular smooth muscle [1]: pronounced activity | EC50 (Platelets (Human)): 3110 nM | Ability to cause platelet aggregation (Platelets (Human)): no or minimal ability | Contraction of rat aortic strips relative to TXA2 (rat aorta): 0.02 × TXA2 | Effect on TX (TXA2) synthetase (TX synthetase): did not | Aggregation of rabbit PRP (rabbit PRP): did not aggre- | Antagonism of the aggregatory effect of TXA2 (rabbit PRP): did not

CCCCCC(O)/C=C/C1C2CC(OC(=O)O2)C1C/C=C\CCCC(=O)NC(C)C (stereo not drawn) [Example 17, 7-[6-carboisopropylamino-2-cis-hexenyl]-6-[3α-hydroxy-1-trans-octenyl]-3-oxo-2,4-dioxobicyclo [3.2.1] octane]
EC50 (FP prostanoid receptor): 3020 nM | EC50 [1, 9]: 324 nM | TXA2-like activity (TXA2 receptor): Mixture of C-15 epimers has stong TXA2-like activity^14

CCCCC[C@H](O)/C=C/C1C[C@H]2CC(O2)[C@@H]1C/C=C\CCCC(=O)O (stereo partly drawn) [Example 2]
Inhibition of PGH2-induced aggregation of HPRP (HPRP): Inhibitor of PGH2-induced ag- gregation of HPRP^1

CCCCC[C@H](O)/C=C/[C@@H]1[C@@H](C/C=C\CCCCO)[C@@H]2C[C@H]1OC(=O)O2 [Example 4]
EC50 (FP prostanoid receptor): 485 nM | EC50 (EP3 prostanoid receptor [2]): 2930 nM | EC50 (EP3 prostanoid receptor [3]): > 10000 nM | EC50 [1, 9]: 1 nM | EC50 ([1]; absence of SQ29,548, read-out: EC50 at TPVASC-receptor, rat aorta): 0.9 nM | Activity in contracting vascular smooth muscle [1]: pronounced activity | EC50 ([1]; presence of SQ29,548 (1 uM), read-out: EC50 at TPVASC-receptor, rat aorta): 454 nM | EC50 (Platelets (Human)): > 10000 nM | Ability to cause platelet aggregation (Platelets (Human)): no or minimal ability; also recorded: neither causes platelet aggregation | Platelet aggregation after Example 4 pretreatment (Platelets [4]; agonist 2 μM ADP, 10^-6 M Example 4): 73.1 ± 14.3 % of max response | Platelet aggregation after Example 4 pretreatment (Platelets [4]; agonist 2 μM ADP, 10^-7 M Example 4): 68.3 ± 12.9 % of max response | Platelet aggregation after Example 4 pretreatment (Platelets [4]; agonist 20 μM ADP, 10^-6 M Example 4): 97.6 ± 1.8 % of max response | Platelet aggregation after Example 4 pretreatment (Platelets [4]; agonist 20 μM ADP, 10^-7 M Example 4): 99.9 ± 1.4 % of max response | Platelet aggregation after Example 4 pretreatment (Platelets [4]; agonist 800 μM Arachidonic Acid, 10^-6 M Example 4): 98.8 ± 1.1 % of max response | Platelet aggregation after Example 4 pretreatment (Platelets [4]; agonist 800 μM Arachidonic Acid, 10^-7 M Example 4): 98.0 ± 1.8 % of max response | Platelet aggregation after Example 4 pretreatment (Platelets [4]; agonist 3.3 × 10-7 U46619, 10^-6 M Example 4): 94.2 ± 2.8 % of max response | Platelet aggregation after Example 4 pretreatment (Platelets [4]; agonist 3.3 × 10-7 U46619, 10^-7 M Example 4): 93.8 ± 2.3 % of max response | Platelet aggregation after Example 4 pretreatment (Platelets [4]; agonist 3.3 × 10-8 Example 7, 10^-6 M Example 4): −7.3 + 0.7 % of max response | Platelet aggregation after Example 4 pretreatment (Platelets [4]; agonist 3.3 × 10-8 Example 7, 10^-7 M Example 4): −9.0 + 1.6 % of max response | Platelet aggregation after Example 4 pretreatment (Platelets [4]; agonist 10-6 Example 7, 10^-6 M Example 4): 96.5 ± 0.9 % of max response | Platelet aggregation after Example 4 pretreatment (Platelets [4]; agonist 10-6 Example 7, 10^-7 M Example 4): 95.3 ± 0.9 % of max response | Platelet aggregation after Example 4 pretreatment (Platelets [4]; agonist 10-6 U46619, 10^-6 M Example 4): 96.0 ± 0.8 % of max response | Platelet aggregation after Example 4 pretreatment (Platelets [4]; agonist 10-6 U46619, 10^-7 M Example 4): 94.6 ± 2.6 % of max response | Platelet aggregation after Example 4 pretreatment (Platelets [4]; agonist 10-7 Example 7, 10^-6 M Example 4): 99.5 ± 1.7 % of max response | Platelet aggregation after Example 4 pretreatment (Platelets [4]; agonist 10-7 Example 7, 10^-7 M Example 4): 97.8 ± 1.7 % of max response | Platelet aggregation after Example 4 pretreatment (Platelets [4]; agonist 10-7 U46619, 10^-6 M Example 4): −5.6 + 0.9 % of max response | Platelet aggregation after Example 4 pretreatment (Platelets [4]; agonist 10-7 U46619, 10^-7 M Example 4): −5.5 + 1.1 % of max response | Platelet aggregation after Example 4 pretreatment (Platelets [4]; agonist 10-8 Example 7, 10^-6 M Example 4): −8.0 + 2.9 % of max response | Platelet aggregation after Example 4 pretreatment (Platelets [4]; agonist 10-8 Example 7, 10^-7 M Example 4): −8.4 + 0.9 % of max response | Inhibition of ADP or arachidonic acid induced platelet aggregation (Platelets [4]; in words): did not inhibit | Intraocular pressure change ([5]; 2 HR after dosing): −6.7** | Intraocular pressure change ([5]; 4 HR after dosing): −7.7** | Intraocular pressure change ([5]; 6 HR after dosing): −8.5** | Constriction of isolated perfused coronary arteries ([6]; in words): profound constric- tion | Constriction of isolated perfused coronary arteries, potency relative to TXB2 [6]: 10^1 × TXB2 | Action on the vasculature (vasculature): Potent TXA2-like agonist | Action on platelets (platelets [7]): profound TXA antagonist | Ischemic damage in the heart during coronary insufficiency [8]: Exacerbated ischemic damage
